Molecules are shown by their SMILES.

For the test, the target named is T1, a4b7 integrin interaction with MadCAM-1 (Homo sapiens, UniProt P13612+P26010).
T1 construct: capture of a4b7 integrin expressing cells, RPMI8866; endogenous in cells; host or cells: RPMI8866
T1 sequence (P13612 34-1032): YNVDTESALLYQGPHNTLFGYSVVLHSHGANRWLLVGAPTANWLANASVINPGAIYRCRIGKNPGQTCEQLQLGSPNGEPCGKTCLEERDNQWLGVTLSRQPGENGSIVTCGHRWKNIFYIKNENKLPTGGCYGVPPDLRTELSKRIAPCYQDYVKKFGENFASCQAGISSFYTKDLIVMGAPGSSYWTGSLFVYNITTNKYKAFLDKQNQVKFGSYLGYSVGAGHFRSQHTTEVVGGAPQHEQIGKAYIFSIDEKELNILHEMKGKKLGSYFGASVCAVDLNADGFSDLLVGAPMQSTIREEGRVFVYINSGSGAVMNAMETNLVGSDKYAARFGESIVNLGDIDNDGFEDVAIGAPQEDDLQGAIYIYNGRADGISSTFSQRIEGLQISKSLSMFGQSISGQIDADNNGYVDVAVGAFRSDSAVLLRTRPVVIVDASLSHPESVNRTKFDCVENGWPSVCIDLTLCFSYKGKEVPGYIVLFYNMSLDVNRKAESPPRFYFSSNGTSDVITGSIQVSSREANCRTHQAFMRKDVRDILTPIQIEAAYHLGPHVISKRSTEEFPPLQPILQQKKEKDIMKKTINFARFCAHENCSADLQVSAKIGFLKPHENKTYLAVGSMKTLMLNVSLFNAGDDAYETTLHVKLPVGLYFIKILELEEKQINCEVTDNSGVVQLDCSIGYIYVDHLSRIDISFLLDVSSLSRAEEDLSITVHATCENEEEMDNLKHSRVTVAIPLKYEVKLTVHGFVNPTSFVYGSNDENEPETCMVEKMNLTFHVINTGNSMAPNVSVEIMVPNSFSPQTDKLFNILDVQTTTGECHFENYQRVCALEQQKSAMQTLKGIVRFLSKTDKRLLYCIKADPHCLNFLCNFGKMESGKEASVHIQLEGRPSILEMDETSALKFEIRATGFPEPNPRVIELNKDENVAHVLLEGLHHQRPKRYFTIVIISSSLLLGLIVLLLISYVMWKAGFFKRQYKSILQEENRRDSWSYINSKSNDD
T1 sequence (P26010 20-798): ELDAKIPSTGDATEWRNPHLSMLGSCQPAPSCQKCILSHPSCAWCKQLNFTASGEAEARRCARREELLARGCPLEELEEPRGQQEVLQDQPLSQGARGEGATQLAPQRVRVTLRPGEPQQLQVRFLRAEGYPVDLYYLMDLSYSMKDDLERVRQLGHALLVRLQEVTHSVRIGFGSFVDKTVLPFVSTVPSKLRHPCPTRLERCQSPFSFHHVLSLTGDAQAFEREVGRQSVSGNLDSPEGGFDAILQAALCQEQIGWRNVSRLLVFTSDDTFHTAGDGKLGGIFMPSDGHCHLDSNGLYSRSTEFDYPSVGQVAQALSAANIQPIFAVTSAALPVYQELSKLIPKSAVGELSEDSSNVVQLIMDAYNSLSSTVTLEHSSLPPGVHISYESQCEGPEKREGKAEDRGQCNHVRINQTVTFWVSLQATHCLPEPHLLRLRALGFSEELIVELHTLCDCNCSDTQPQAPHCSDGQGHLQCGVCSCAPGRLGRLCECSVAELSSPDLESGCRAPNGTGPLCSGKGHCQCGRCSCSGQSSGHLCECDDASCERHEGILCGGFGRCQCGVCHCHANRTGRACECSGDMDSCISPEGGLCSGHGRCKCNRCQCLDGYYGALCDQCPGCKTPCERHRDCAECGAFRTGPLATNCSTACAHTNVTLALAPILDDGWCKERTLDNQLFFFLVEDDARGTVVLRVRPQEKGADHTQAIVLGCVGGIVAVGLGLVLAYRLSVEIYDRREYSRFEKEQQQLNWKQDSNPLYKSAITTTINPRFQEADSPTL
Put plainly: a4b7 Cell Capture Assay (RPMI8866 cells on MAdCAM-1 Fc coated plates). The test is classed as cell-based. The settings on record: 50% human serum, 1 mM MgCl2, 1 hour incubation, CellTiter-Glo luminescence, read-out: a4B7 cell capture assay RMPI8866-MadCAM EC50. A digest of the protocol: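 RPMI8866 cells (1.0×10^6 cells/mL) in 1 mM MgCl2, 25 mM HEPES, 50% human serum were added to plates coated with human MAdCAM-1–IgG1 Fc (1.0 μg/mL) and exposed to compound (9-point, 0.08–1000 nM, 0.1% DMSO) for 1 h at 37 °C. Bound cells were read by CellTiter-Glo luminescence. IC50 came from 4-parameter fit of normalized % inhibition.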
Regarding `Cc1cccc2c1-c1cc(c(F)c(C(F)(F)F)c1)[C@H](CC(=O)O)NC(=O)[C@@H](n1cc(CCN3CC(F)C3)c(C(F)(F)F)cc1=O)c1cc(ccc1F)CO2` (relative stereo) [Example 35, [(15R*,18S)-13,20-difluoro-15-{5-[2-(3-fluoroazetidin-1-yl)ethyl]-2-oxo-4-(trifluoromethyl)pyridin-1-yl}-3-methyl-16-oxo-21-(trifluoromethyl)-8-oxa-17-azatetracyclo[17.3.1.1^{10,14}.0^{2,7}]tetracosa-1(23),2(7),3,5,10,12,14(24),19,21-nonaen-18-yl]acetic acid], the 50% effective concentration (EC50) is 7.7 nM.

As for `Cc1cc2cc(c1F)[C@H](CC(=O)O)NC(=O)[C@@H](n1cc(CCN3CC(F)C3)c(C(F)(F)F)cc1=O)c1cc(ccc1F)COc1cccc(C)c1-2` (relative stereo) [Example 36, [(15R*,18S)-13,20-difluoro-15-{5-[2-(3-fluoroazetidin-1-yl)ethyl]-2-oxo-4-(trifluoromethyl)pyridin-1-yl}-3,21-dimethyl-16-oxo-8-oxa-17-azatetracyclo[17.3.1.1^{10,14}.0^{2,7}]tetracosa-1(23),2(7),3,5,10,12,14(24),19,21-nonaen-18-yl]acetic acid], the EC50 turned out to be 5.2 nM.

Consider `Cc1cccc2c1-c1cc(C(F)F)c(F)c(c1)[C@H](CC(=O)O)NC(=O)[C@@H](n1cc(CCN3CC(F)C3)c(C(F)(F)F)cc1=O)c1cc(ccc1F)O2` (relative stereo) [Example 37, [(14R*,17S)-20-(difluoromethyl)-12,19-difluoro-14-{5-[2-(3-fluoroazetidin-1-yl)ethyl]-2-oxo-4-(trifluoromethyl)pyridin-1-yl}-3-methyl-15-oxo-8-oxa-16-azatetracyclo[16.3.1.1^{9,13}.0^{2,7}]tricosa-1(22),2(7),3,5,9,11,13(23),18,20-nonaen-17-yl]acetic acid], for which the EC50 was 1.3 nM.

For the compound `Cc1cc2cc(c1F)[C@H](CC(=O)O)NC(=O)[C@@H](n1cc(CCN3CC(F)C3)c(C(F)(F)F)cc1=O)c1cc(ccc1F)Oc1nn(C)c(C)c1-2` (relative stereo) [Example 40, rel-[(13S,16S)-11,18-difluoro-13-{5-[2-(3-fluoroazetidin-1-yl)ethyl]-2-oxo-4-(trifluoromethyl)pyridin-1-yl}-3,4,19-trimethyl-14-oxo-7-oxa-4,5,15-triazatetracyclo[15.3.1.1^{8,12}.0^{2,6}]docosa-1(21),2,5,8,10,12(22),17,19-octaen-16-yl]acetic acid], the EC50 was determined as 42 nM.

As for `Cc1ccc2c(c1C)-c1cc(C)c(F)c(c1)[C@H](CC(=O)O)NC(=O)[C@@H](n1cc(CCN3CC(F)C3)c(C(F)(F)F)cc1=O)c1cc(ccc1F)CO2` (relative stereo) [Example 51, [(15R*,18S)-13,20-difluoro-15-{5-[2-(3-fluoroazetidin-1-yl)ethyl]-2-oxo-4-(trifluoromethyl)pyridin-1-yl}-3,4,21-trimethyl-16-oxo-8-oxa-17-azatetracyclo[17.3.1.1^{10,14}.0^{2,7}]tetracosa-1(23),2(7),3,5,10,12,14(24),19,21-nonaen-18-yl]acetic acid], the EC50 was found to be 990 nM.

On to `Cc1cc2cc(c1F)[C@H](CC(=O)O)NC(=O)[C@@H](n1cc(CCN3CC(F)C3)c(C(F)(F)F)cc1=O)c1cc(ccc1F)Oc1cc(Cl)cc(C)c1-2` (relative stereo) [Example 55, [(14R*,17S)-5-chloro-12,19-difluoro-14-{5-[2-(3-fluoroazetidin-1-yl)ethyl]-2-oxo-4-(trifluoromethyl)pyridin-1-yl}-3,20-dimethyl-15-oxo-8-oxa-16-azatetracyclo[16.3.1.1^{9,13}.0^{2,7}]tricosa-1(22),2(7),3,5,9,11,13(23),18,20-nonaen-17-yl]acetic acid], for which the EC50 was determined as 4 nM.

With `Cc1cc2cc(c1F)[C@H](CC(=O)O)NC(=O)[C@@H](n1cc(CCN3CC(F)C3)c(C(F)(F)F)cc1=O)c1cc(ccc1F)Oc1cc(N3C4CCC3COC4)cc(C)c1-2` (relative stereo) [Example 56, [(14R*,17S)-12,19-difluoro-14-{5-[2-(3-fluoroazetidin-1-yl)ethyl]-2-oxo-4-(trifluoromethyl)pyridin-1-yl}-3,20-dimethyl-5-{3-oxa-8-azabicyclo[3.2.1]octan-8-yl}-15-oxo-8-oxa-16-azatetracyclo[16.3.1.1^{9,13}.0^{2,7}]tricosa-1(22),2(7),3,5,9,11,13(23),18,20-nonaen-17-yl]acetic acid], the EC50 was 0.97 nM.

On to `Cc1cc2cc(c1F)[C@H](CC(=O)O)NC(=O)[C@@H](n1cc(CCN3CC(F)C3)c(C(F)(F)F)cc1=O)c1cc(ccc1Cl)Oc1cccc(C)c1-2` (relative stereo) [Example 59, [(14R*,17S)-12-chloro-19-fluoro-14-{5-[2-(3-fluoroazetidin-1-yl)ethyl]-2-oxo-4-(trifluoromethyl)pyridin-1-yl}-3,20-dimethyl-15-oxo-8-oxa-16-azatetracyclo[16.3.1.1^{9,13}.0^{2,7}]tricosa-1(22),2(7),3,5,9,11,13(23),18,20-nonaen-17-yl]acetic acid], for which the EC50 was 1.2 nM.

Consider `Cc1cc2cc(c1F)[C@H](CC(=O)O)NC(=O)[C@@H](n1cc(CCN3CC(F)C3)c(C(F)(F)F)cc1=O)c1cc(ccc1F)COc1cc(C(F)(F)F)cc(C)c1-2` (relative stereo) [Example 65, [(15R*,18S)-13,20-difluoro-15-{5-[2-(3-fluoroazetidin-1-yl)ethyl]-2-oxo-4-(trifluoromethyl)pyridin-1-yl}-3,21-dimethyl-16-oxo-5-(trifluoromethyl)-8-oxa-17-azatetracyclo[17.3.1.1^{10,14}.0^{2,7}]tetracosa-1(23),2(7),3,5,10,12,14(24),19,21-nonaen-18-yl]acetic acid], for which the EC50 amounted to 77 nM.

Turning to `Cc1cc2cc(c1F)[C@H](CC(=O)O)NC(=O)[C@@H](n1ccc(C(F)(F)F)c(Cl)c1=O)c1cc(ccc1F)COc1cccc(C)c1-2` (relative stereo) [Example 79, [(15R*,18S)-15-[3-chloro-2-oxo-4-(trifluoromethyl)pyridin-1-yl]-13,20-difluoro-3,21-dimethyl-16-oxo-8-oxa-17-azatetracyclo[17.3.1.1^{10,14}.0^{2,7}]tetracosa-1(23),2(7),3,5,10,12,14(24),19,21-nonaen-18-yl]acetic acid], the EC50 is more than 100 nM.

In the case of `Cc1cc2cc(c1F)[C@H](CC(=O)O)NC(=O)[C@@H](n1cc(CCCN3CCC3)c(C(F)(F)F)cc1=O)c1cc(ccc1F)Oc1cccc(C)c1-2` (single isomer, unassigned) [Example 21], the EC50 amounted to 0.079 nM.

As to `COC1CN(c2cc(C)c3c(c2)Oc2ccc(F)c(c2)[C@H](n2cc(CCN4CC(F)C4)c(C(F)(F)F)cc2=O)C(=O)N[C@@H](CC(=O)O)c2cc-3cc(C)c2F)C1` (single isomer, unassigned) [Example 41], the EC50 turned out to be 21 nM.

Regarding `Cc1cc2cc(c1F)[C@H](CC(=O)O)NC(=O)[C@@H](n1ccc(C(F)(F)F)cc1=O)c1cc(ccc1F)Oc1cccc(C)c1-2` (single isomer, unassigned) [Example 42], the EC50 was 13 nM.

The term EC50 denotes the concentration at which the effect is half-maximal.
